Results on 1 substance are retold here after patent publication US20240374763A1, “DIAGNOSIS AND MONITORING USING EXTRADOMAIN-B FIBRONECTIN TARGETED PROBES” (Case Western Reserve University, priority 2020, published 2024).

For the assay, the system named is HSC3 tumors. Kind of assay: MRMI of OSCC flank xenografts, HSC3. To be noted: MT218 0.04 mmol/kg. Type of assay: in vivo, mice. As for the experimental part:
Animal experiments were performed under an animal protocol approved by the Institutional Animal Care and Use Committee (IACUC) at Case Western Reserve University (CWRU, Cleveland, OH, USA). Female 4-week-old athymic nude mice purchased from the Jackson Laboratory (Bar Harbor, ME, USA) were housed in the Animal Core Facility at CWRU. Anesthetized mice were subcutaneously inoculated in the right flank with 4×10^6 GFP/luciferase-expressing OSCC cells (n=5 per cell line) in 100 μL of a 1:1 mixture of Matrigel HC (Corning) and DPBS. Tumor size was monitored with caliper measurements. After 4 weeks of growth, tumors were sufficiently large for MRI experiments.
MRI experiments were performed with a 3T MRS-3000 system (MR Solutions, Surrey, UK). Tumor-bearing mice were imaged before and at 10, 20, […] spin-echo axial sequence with respiratory gating (TR=305 ms, TE=11 ms, FOV=40×40 mm, slice thickness=1 mm, number of slices=15, Nav=2, matrix=256×248). This protocol was repeated on the same mice 2 days later using the untargeted clinical agent gadoteridol at the clinical dose of 0.10 mmol/kg.
Images were exported in DICOM format and analyzed using FIJI. Contrast-to-noise ratio (CNR) for each time point was calculated as the difference between the mean tumor intensity and the mean muscle intensity, divided by the standard deviation of noise.

No end group written: not given here.

In the case of “ZD2-N3-Gd(HP-DO3A) (TVRTSAD; also: conjugated to Gd(HP-DO3A) by click reaction of alkynyl-ZD2 with N3-Gd(HP-DO3A), residue of attachment not given here, Gd complex) [MT218, EDB-FN-targeted MRI contrast agent; ZD2 peptide conjugated to the clinical macrocyclic agent Gd(HP-DO3A)]”, the “average maximum enhancement (CNR)” value came to 2.61±0.17.
